One experiment deals with T1, Liver carboxylesterase (Sus scrofa, UniProt Q29550).
T1 sequence (Q29550 whole entry): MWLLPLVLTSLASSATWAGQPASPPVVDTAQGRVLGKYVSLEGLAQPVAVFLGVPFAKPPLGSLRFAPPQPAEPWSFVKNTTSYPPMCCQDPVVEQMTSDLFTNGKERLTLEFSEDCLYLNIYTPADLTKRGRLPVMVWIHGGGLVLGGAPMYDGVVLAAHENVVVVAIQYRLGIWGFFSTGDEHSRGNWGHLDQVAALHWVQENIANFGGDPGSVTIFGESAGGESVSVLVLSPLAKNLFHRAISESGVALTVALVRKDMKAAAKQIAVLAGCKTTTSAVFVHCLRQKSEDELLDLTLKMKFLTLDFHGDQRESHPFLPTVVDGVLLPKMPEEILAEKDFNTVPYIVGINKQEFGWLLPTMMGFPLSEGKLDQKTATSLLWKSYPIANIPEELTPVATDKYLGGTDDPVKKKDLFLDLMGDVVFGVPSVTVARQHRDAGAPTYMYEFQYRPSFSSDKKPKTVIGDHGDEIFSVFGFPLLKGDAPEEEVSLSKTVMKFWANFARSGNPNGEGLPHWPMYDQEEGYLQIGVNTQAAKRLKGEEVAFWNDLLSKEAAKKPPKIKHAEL
In words: Inhibition of porcine liver carboxylesterase using [14C]GS-7340 substrate.

The target in experiment [1] is T2, Lysosomal protective protein (Homo sapiens, UniProt P10619).
T2 sequence (P10619 whole entry): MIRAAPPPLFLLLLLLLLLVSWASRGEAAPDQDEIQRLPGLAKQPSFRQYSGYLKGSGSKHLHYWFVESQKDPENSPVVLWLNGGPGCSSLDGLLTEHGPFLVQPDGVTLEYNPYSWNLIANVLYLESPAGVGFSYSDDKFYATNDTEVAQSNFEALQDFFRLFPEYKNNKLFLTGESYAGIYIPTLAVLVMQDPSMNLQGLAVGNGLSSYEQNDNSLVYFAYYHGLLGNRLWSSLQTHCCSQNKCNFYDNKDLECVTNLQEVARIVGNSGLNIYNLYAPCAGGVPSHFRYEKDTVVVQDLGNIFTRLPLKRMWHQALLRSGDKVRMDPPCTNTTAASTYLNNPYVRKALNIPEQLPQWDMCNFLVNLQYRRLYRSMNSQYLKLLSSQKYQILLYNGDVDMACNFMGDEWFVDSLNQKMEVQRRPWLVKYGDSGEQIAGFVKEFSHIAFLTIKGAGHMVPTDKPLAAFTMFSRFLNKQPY
Kind of experiment: Inhibition of recombinant CatA using [14C]GS-7340 substrate.

Experiment [2] in a line: Inhibition of purified prodrug hydrolase using [14C]GS-7340 substrate. More on the design: species or system Homo sapiens.
A short description of experiment [3]: Inhibition of crude human PBMC extract prodrug hydrolase using [14C]GS-7340 substrate.
In the next experiment the target is T3, Neutrophil elastase (Homo sapiens, UniProt P08246).
T3 sequence (P08246 whole entry): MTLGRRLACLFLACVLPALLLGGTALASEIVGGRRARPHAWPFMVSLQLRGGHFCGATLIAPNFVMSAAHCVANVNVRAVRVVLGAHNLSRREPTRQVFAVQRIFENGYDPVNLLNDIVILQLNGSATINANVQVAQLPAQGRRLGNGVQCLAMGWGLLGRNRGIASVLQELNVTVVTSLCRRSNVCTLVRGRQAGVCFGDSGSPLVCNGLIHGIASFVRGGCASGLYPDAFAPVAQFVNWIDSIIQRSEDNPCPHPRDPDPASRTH
In words: Inhibition of human leukocyte elastase using [14C]GS7340 substrate.

The text below walks through data of ChEMBL document CHEMBL1142204, “Cathepsin A is the major hydrolase catalyzing the intracellular hydrolysis of the antiretroviral nucleotide phosphonoamidate prodrugs GS-7340 and GS-9131” (Antimicrob Agents Chemother, 2007).

Structures are written as SMILES.

A word on the IC50: it is the concentration that inhibits the measured activity by half.

`O=c1oc(Cl)c(Cl)c2ccccc12`: the IC50 was greater than 250 µM at Liver carboxylesterase, 0.6 µM in experiment [1], 0.5 µM in experiment [2] and 5 µM in experiment [3].
Consider `CC(C)C[C@H](NC(=O)[C@H]1O[C@@H]1C(=O)O)C(=O)NCCCCN=C(N)N` [E-64], for which the IC50 (on Liver carboxylesterase; in experiment [1]; against Neutrophil elastase; in experiment [2]; in experiment [3]) was greater than 300 µM throughout.
